Laboratory results published in US20140275237A1, “BERAPROST ISOMER AS AN AGENT FOR THE TREATMENT OF VIRAL INFECTION” (priority 2013, published 2014).
Where two headings read alike, the source gives them in different places.

How the values were obtained:
[1] = tested on: Influenza A/Duck/MN/1525/81 (H5N1); parameters: species or system mice; details: mouse, in vivo
[2] = tested on: Influenza A/Duck/MN/1525/81 (H5N1); parameters: species or system mice; details: mouse, in vivo; remark: listed apart in the source
[3] = tested on: Influenza A/Duck/MN/1525/81 (H5N1); parameters: species or system mice; details: mouse, in vivo; remark: listed apart in the source
[4] = tested on: Influenza A/Duck/MN/1525/81 (H5N1); parameters: species or system mice; details: mouse, in vivo; remark: listed apart in the source
[5] = tested on: Influenza A/Duck/MN/1525/81 (H5N1); parameters: species or system mice; details: mouse, in vivo; remark: listed apart in the source
[6] = tested on: human PBMCs activated with Poly r(I:C); assay: cells; assay type: cell-based; details: for EC50: read-out: EC50 for reduction of cytokine release (TNFalpha production) from human PBMCs

Structure (SMILES) | Average % loss (animal weight loss as percent of initial weight) [1] | Lung score, Mean [2] | Lung weight, Mean [2] | Lung cytokine concentration, CCL2 Average [3] | Lung cytokine concentration, IFNg Average [3] | Lung cytokine concentration, IL-6 Average [3] | Lung cytokine concentration, IL-10 Average [3] | Lung cytokine concentration, IL-12 Ave [3] | MDD (mean day of death) [4] | Survival [4] | Mean number of cells (lung) [5] | EC50 [6] | EC50 for reduction of cytokine release (TNFalpha production) from human PBMCs [6] | EC50 ([6]; Homo sapiens, PBMC, 18 h)
CC#CC[C@H](C)[C@H](O)/C=C/[C@@H]1[C@H]2c3cccc(CCCC(=O)[O-])c3O[C@H]2C[C@H]1O.[Na+] (single isomer, unassigned; isomer a) [Isomer A] | 76% | 2.00 | 0.22 grams | 953 pg/mL | 1046 pg/mL | 521 pg/mL | 223 pg/mL | 3800 pg/mL | 13 | 4/10 | 1.15 | 4 nM | – | –
CC#CCC(C)C(O)C=CC1C(O)CC2Oc3c(CCCC(=O)O)cccc3C21 (single isomer, unassigned; isomer d) [Isomer D] | 68% | 3.50 | 0.37 grams | 2347 pg/mL | 2074 pg/mL | 1291 pg/mL | 758 pg/mL | 2603 pg/mL | 7 | 0/10 | – | – | No | –
CC#CCC(C)C(O)C=CC1C(O)CC2Oc3c(CCCC(=O)[O-])cccc3C21.[Na+] (centres unmarked) [Beraprost, 2,3,3a,8b-tetrahydro-2-hydroxyl-1-(3-hydroxyl-4-methyl-1-octen-6-ynyl)-1H-cyclopenta[b]benzofuran-5-butanoic acid, sodium salt] | 76% | 2.0 | 0.24 grams | 1308 pg/mL | 1601 pg/mL | 604 pg/mL | 621 pg/mL | 3517 pg/mL | 11.5 | 3/10 | 2.63 | – | – | 11 nM
